The test system of this test is diaphorase. The experiment in a line: fluorescently labeled diaphorase binding to peptide array with or without excess FAD. The following applies: for 1 microM FAD (array fluorescence of bound diaphorase) / 1 micro no FAD (array fluorescence of bound diaphorase): 1 micromolar labeled diaphorase; for 1 microM FAD (array fluorescence of bound diaphorase) / 10 microM FAD (array fluorescence of bound diaphorase): excess FAD present; for 1 microM FAD (array fluorescence of bound diaphorase) / 1 micro no FAD (array fluorescence of bound diaphorase) / 10 microM FAD (array fluorescence of bound diaphorase) / 10 microM no FAD (array fluorescence of bound diaphorase): 65535 is detector saturation; for 10 microM FAD (array fluorescence of bound diaphorase) / 10 microM no FAD (array fluorescence of bound diaphorase): 10 micromolar labeled diaphorase; for 1 microM noFAD/FAD / 10 microM noFAD/FAD: ratio of binding without FAD to binding with FAD; for 1 microM noFAD/FAD / Meas. ratio: 1 micromolar diaphorase; for 10 microM noFAD/FAD: 10 micromolar diaphorase; for Meas. ratio: ratio without/with FAD calculated from measured binding values. As for the experimental part: Measurements were performed in which diaphorase was bound to an array of about 126,000 unique sequences. The sequences were chosen simply to cover sequence space. 16 of the natural 20 amino acids were used to make up these sequences with C, I, M and T omitted. The diaphorase was fluorescently labeled and each peptide sequence feature was scanned and fluorescence recorded on the array. Diaphorase bound tightly to some peptides and not at all to others. Two different concentrations of diaphorase were used, 1 and 10 micromolar, and the diaphorase was either bound in the presence of excess FAD or not. […] Indeed the Pearson correlation coefficient between w/ and w/o FAD was >0.97, which actually speaks to the reproducibility of this dataset. However, there are some differences as shown on the scatter plot of FIG. 1. When one takes a ratio of the binding without FAD and the binding with FAD, one finds the following top 30 ratios (Table 1): Note that all these sequences end with a GSG linker sequence. Because there are two concentrations, one can easily check for consistency. Note that 65535 is detector saturation, so one has to ignore those values. For this reason, the lower concentration is used most of the time. […] It appears that this was some kind of error and was ignored in subsequent analysis. A similar conclusion can be made with the 7th highest value. Looking at the sequences, RW or at least R or K followed by a nonpolar or aromatic amino acid at the N-terminus. This is interesting as FAD is negatively charged, though the adenine in FAD looks a bit like tryptophan (see FIG. 2).

These results are taken from patent US20190064177A1, “INCORPORATING COMPETITIVE BINDING INFORMATION INTO MOLECULAR ARRAY ANALYSIS TO GENERATE FUNCTION NETWORKS OF INTERACTIONS” (ARIZONA BOARD OF REGENTS ON BEHALF OF ARIZONA STATE …, priority 2017, published 2019).

Regarding “DLDKAFGGSG [array peptide with C-terminal GSG linker]”, the “1 microM FAD (array fluorescence of bound diaphorase)” value is listed as 2049.75, the “1 micro no FAD (array fluorescence of bound diaphorase)” value was 607.25, the “10 microM FAD (array fluorescence of bound diaphorase)” value is listed as 2142.25 and the “10 microM no FAD (array fluorescence of bound diaphorase)” value is reported as 1853. Further, the “1 microM noFAD/FAD” value stood at 0.2963, the “10 microM noFAD/FAD” value worked out at 0.865 and the Meas. ratio is recorded as 0.30.

For the sequence “LDRLGEYQFSGSG [array peptide with C-terminal GSG linker]”, the “1 microM FAD (array fluorescence of bound diaphorase)” value was 1164.75, the “1 micro no FAD (array fluorescence of bound diaphorase)” value is 709.25, the “10 microM FAD (array fluorescence of bound diaphorase)” value amounted to 7142.5 and the “10 microM no FAD (array fluorescence of bound diaphorase)” value is on record as 2995.75. Moreover, the “1 microM noFAD/FAD” value was determined as 0.6089, the “10 microM noFAD/FAD” value worked out at 0.4194 and the Meas. ratio was 0.61.

On to “YRYGWQKYGGSG [array peptide with C-terminal GSG linker]”, for which the Meas. ratio was 2.43.

Take KEDKVFGFRFDGS: the Meas. ratio is 0.70.

Turning to “FLQFLGGSG [array peptide with C-terminal GSG linker]”, the Meas. ratio is on record as 0.87.

In the case of “VLSLNQVYSEGSG [array peptide with C-terminal GSG linker]”, the “1 microM FAD (array fluorescence of bound diaphorase)” value is recorded as 2705.5, the “1 micro no FAD (array fluorescence of bound diaphorase)” value stood at 1674.75, the “10 microM FAD (array fluorescence of bound diaphorase)” value is 21822.25 and the “10 microM no FAD (array fluorescence of bound diaphorase)” value was 9853.75. In addition, the “1 microM noFAD/FAD” value is listed as 0.619, the “10 microM noFAD/FAD” value is 0.4515 and the Meas. ratio is reported as 0.62.

With “RSHPKHNVGSG [array peptide with C-terminal GSG linker]”, the “1 microM FAD (array fluorescence of bound diaphorase)” value was 3876, the “1 micro no FAD (array fluorescence of bound diaphorase)” value is reported as 1953.667, the “10 microM FAD (array fluorescence of bound diaphorase)” value amounted to 12238.917 and the “10 microM no FAD (array fluorescence of bound diaphorase)” value was 17018.417. The “1 microM noFAD/FAD” value is given as 0.504, the “10 microM noFAD/FAD” value is listed as 1.391 and the Meas. ratio is 0.50.

Consider PVDFGYQLKVSGS, for which the Meas. ratio is 0.66.

Regarding FNKVLEYKWLFEG, the Meas. ratio is 0.73.

Regarding “YRLNLKHPVGGSG [array peptide with C-terminal GSG linker]”, the “1 microM FAD (array fluorescence of bound diaphorase)” value is 4146.5, the “1 micro no FAD (array fluorescence of bound diaphorase)” value is on record as 12652.75, the “10 microM FAD (array fluorescence of bound diaphorase)” value was determined as 56689 and the “10 microM no FAD (array fluorescence of bound diaphorase)” value stood at 65535. The “1 microM noFAD/FAD” value is 3.051, the “10 microM noFAD/FAD” value was found to be 1.156 and the Meas. ratio is reported as 3.05.

Regarding “RQRYPKVSGGSG [array peptide with C-terminal GSG linker]”, the Meas. ratio was 1.71.

Regarding “FQFGKVVSDGSG [array peptide with C-terminal GSG linker]”, the “1 microM FAD (array fluorescence of bound diaphorase)” value came to 2470, the “1 micro no FAD (array fluorescence of bound diaphorase)” value is listed as 1574.5, the “10 microM FAD (array fluorescence of bound diaphorase)” value came to 20187.75 and the “10 microM no FAD (array fluorescence of bound diaphorase)” value was 12735.5. The “1 microM noFAD/FAD” value came out at 0.6374, the “10 microM noFAD/FAD” value is listed as 0.6309 and the Meas. ratio was 0.64.

Consider “YSALFGLQEDGSG [array peptide with C-terminal GSG linker]”, for which the “1 microM FAD (array fluorescence of bound diaphorase)” value came out at 2100.75, the “1 micro no FAD (array fluorescence of bound diaphorase)” value is 1225.5, the “10 microM FAD (array fluorescence of bound diaphorase)” value was determined as 16872.25 and the “10 microM no FAD (array fluorescence of bound diaphorase)” value worked out at 8529. The “1 microM noFAD/FAD” value turned out to be 0.5834, the “10 microM noFAD/FAD” value is 0.5055 and the Meas. ratio was 0.58.

For the sequence “RLYPQGYGGSG [array peptide with C-terminal GSG linker]”, the “1 microM FAD (array fluorescence of bound diaphorase)” value came out at 4541.5, the “1 micro no FAD (array fluorescence of bound diaphorase)” value was 11912, the “10 microM FAD (array fluorescence of bound diaphorase)” value was 61747 and the “10 microM no FAD (array fluorescence of bound diaphorase)” value is listed as 65535. Moreover, the “1 microM noFAD/FAD” value was found to be 2.623, the “10 microM noFAD/FAD” value amounted to 1.061 and the Meas. ratio is 2.62.

Consider “VFGVLSQVARDGSG [array peptide with C-terminal GSG linker]”, for which the “1 microM FAD (array fluorescence of bound diaphorase)” value came out at 6638, the “1 micro no FAD (array fluorescence of bound diaphorase)” value was 4250.5, the “10 microM FAD (array fluorescence of bound diaphorase)” value was 51495.5 and the “10 microM no FAD (array fluorescence of bound diaphorase)” value worked out at 26186.5. Further, the “1 microM noFAD/FAD” value turned out to be 0.6403, the “10 microM noFAD/FAD” value is on record as 0.5085 and the Meas. ratio is reported as 0.64.

In the case of “RNWYGGSG [array peptide with C-terminal GSG linker]”, the “1 microM FAD (array fluorescence of bound diaphorase)” value came out at 2940.75, the “1 micro no FAD (array fluorescence of bound diaphorase)” value was found to be 7830.5, the “10 microM FAD (array fluorescence of bound diaphorase)” value is given as 48587 and the “10 microM no FAD (array fluorescence of bound diaphorase)” value was determined as 65535. In addition, the “1 microM noFAD/FAD” value turned out to be 2.663, the “10 microM noFAD/FAD” value stood at 1.349 and the Meas. ratio is given as 2.66.

Consider “KNRPYNKDLEDGSG [array peptide with C-terminal GSG linker]”, for which the “1 microM FAD (array fluorescence of bound diaphorase)” value is recorded as 5147, the “1 micro no FAD (array fluorescence of bound diaphorase)” value worked out at 733.25, the “10 microM FAD (array fluorescence of bound diaphorase)” value is 2589.25 and the “10 microM no FAD (array fluorescence of bound diaphorase)” value came to 2522.5. For the same sequence, the “1 microM noFAD/FAD” value is 0.1425, the “10 microM noFAD/FAD” value is recorded as 0.9742 and the Meas. ratio was 0.14.

With “SGVLQFFGGSG [array peptide with C-terminal GSG linker]”, the Meas. ratio is recorded as 0.70.

Take “RLQYLFKSDGSG [array peptide with C-terminal GSG linker]”: the “1 microM FAD (array fluorescence of bound diaphorase)” value turned out to be 1964.75, the “1 micro no FAD (array fluorescence of bound diaphorase)” value is 5778.25, the “10 microM FAD (array fluorescence of bound diaphorase)” value is on record as 30591 and the “10 microM no FAD (array fluorescence of bound diaphorase)” value was 64328.25. Moreover, the “1 microM noFAD/FAD” value was determined as 2.941, the “10 microM noFAD/FAD” value is recorded as 2.103 and the Meas. ratio is 2.94.

For “ELFGALFKGGSG [array peptide with C-terminal GSG linker]”, the “1 microM FAD (array fluorescence of bound diaphorase)” value was 3403, the “1 micro no FAD (array fluorescence of bound diaphorase)” value is on record as 2083.5, the “10 microM FAD (array fluorescence of bound diaphorase)” value is on record as 25315 and the “10 microM no FAD (array fluorescence of bound diaphorase)” value was 12943.5. Besides, the “1 microM noFAD/FAD” value is 0.6123, the “10 microM noFAD/FAD” value amounted to 0.5113 and the Meas. ratio is reported as 0.61.

On to “YRRPWKFRDGSG [array peptide with C-terminal GSG linker]”, for which the Meas. ratio was 1.74.

For the sequence “YVWGLELSGGSG [array peptide with C-terminal GSG linker]”, the “1 microM FAD (array fluorescence of bound diaphorase)” value is reported as 4688.5, the “1 micro no FAD (array fluorescence of bound diaphorase)” value turned out to be 2607.5, the “10 microM FAD (array fluorescence of bound diaphorase)” value worked out at 36320 and the “10 microM no FAD (array fluorescence of bound diaphorase)” value is 17286.5. Further, the “1 microM noFAD/FAD” value was found to be 0.5561, the “10 microM noFAD/FAD” value was 0.4759 and the Meas. ratio is reported as 0.56.

Consider “AQVAVDGFYVDGSG [array peptide with C-terminal GSG linker]”, for which the “1 microM FAD (array fluorescence of bound diaphorase)” value was found to be 3089, the “1 micro no FAD (array fluorescence of bound diaphorase)” value was found to be 2012.5, the “10 microM FAD (array fluorescence of bound diaphorase)” value is on record as 22739.5 and the “10 microM no FAD (array fluorescence of bound diaphorase)” value came to 12627. Besides, the “1 microM noFAD/FAD” value came to 0.6515, the “10 microM noFAD/FAD” value amounted to 0.5553 and the Meas. ratio was 0.65.

As to GYHLFEKLYFDGS, the Meas. ratio was 0.70.

As for “FGKLYQLYNDGSG [array peptide with C-terminal GSG linker]”, the “1 microM FAD (array fluorescence of bound diaphorase)” value worked out at 3049, the “1 micro no FAD (array fluorescence of bound diaphorase)” value is on record as 1911.25, the “10 microM FAD (array fluorescence of bound diaphorase)” value amounted to 34155 and the “10 microM no FAD (array fluorescence of bound diaphorase)” value is reported as 15703. In addition, the “1 microM noFAD/FAD” value came out at 0.6268, the “10 microM noFAD/FAD” value came out at 0.4598 and the Meas. ratio was 0.63.

For the sequence “YRRFPYFPGGSG [array peptide with C-terminal GSG linker]”, the Meas. ratio is on record as 1.60.
